Test results as given in patent publication US4598068A, “Benzylphenyl osides, method of preparation and use therefor” (Societe de Recheres Industrielles, priority 1983, dated 1986).

Experiments:
[1] = Acute toxicity, intraperitoneal administration to mice; type: in vivo; settings: mouse, in vivo, ip, read-out: LD50 (lethal dose causing the death of half of the animals)
Description: (§1) The acute toxicity was studied by intraperitoneal administration to mice. It is expressed in the form of LD50 (lethal dose causing the death of half of the animals) or LD0 (maximum non-lethal dose).

[2] = test system: cholesterol level in the plasma; assay: Hypocholesterolemic activity: plasma cholesterol level in rats; type: in vivo, male Wistar rats; settings: Rattus norvegicus, po, T=0 to T=+24 hours, not corrected for the variation in the control group, read-out: % Variation in the cholesterol level, variation in the subject treated; for change in vivo at 65 mg/kg: 65 mg/kg p.o. at T=0 and T=+7 hours; for change in vivo at 100 mg/kg: 100 mg/kg p.o. at T=0 and T=+7 hours
Experimental: Hypocholesterolemic activity
The hypocholesterolemic activity was studied on male Wistar rats (weighing about 200 to 220 g). Groups of 10 rats per product and per dose are fasted the day before the experiment. The products to be tested are administered in gum water (30 g/liter of gum arabic) at times T=0 and T=+7 hours. The cholesterol level in the plasma is measured at times T=0 and T=+24 hours and the percentage variation between T=0 and T=+24 hours is then calculated for the treated groups and the control groups.

[3] = Antithrombotic effects (statement only); settings: in words
mice = assay: Acute toxicity, intraperitoneal administration to mice; type: in vivo; settings: i.p.
Description: as §1

SMILES | LD0 (maximum non-lethal dose) (mice) [mg/kg] | change in vivo at 100 mg/kg [2] [%] | also measured
O=[N+]([O-])c1ccc(Cc2ccc(O[C@@H]3OC[C@@H](O)[C@H](O)[C@H]3O)cc2)cc1 [Example 1, 4-(4-nitrobenzyl)phenyl β-D-xylopyranoside] |  |  | LD50 [1]: 650 mg/kg; change in vivo at 65 mg/kg [2]: -39%; antithrombotic effects [3]: beneficial antithrombotic effects
O=[N+]([O-])c1cccc(Cc2ccc(O[C@@H]3OC[C@@H](O)[C@H](O)[C@H]3O)cc2)c1 [Example 2, 4-(3-nitrobenzyl)phenyl β-D-xylopyranoside] | > 800 | -27 | 
CC(=O)N[C@H]1[C@H](Oc2ccc(Cc3ccc([N+](=O)[O-])cc3)cc2)O[C@H](CO)[C@@H](O)[C@@H]1O [Example 3] | > 800 | -42 | 
O=[N+]([O-])c1ccc(Cc2ccc(O[C@@H]3O[C@H](CO)[C@H](O)[C@H](O)[C@H]3O)cc2)cc1 [Example 4] | ≥ 900 | -33 | 
C[C@@H]1O[C@@H](Oc2ccc(Cc3ccc([N+](=O)[O-])cc3)cc2)[C@H](O)[C@H](O)[C@H]1O [Example 5] |  | -7 | 
O=[N+]([O-])c1ccc(Cc2ccc(O[C@@H]3OC[C@H](O)[C@H](O)[C@H]3O)cc2)cc1 [Example 6] | ≥ 900 | -29 | 
O[C@@H]1[C@@H](O)[C@H](Oc2ccc(Cc3ccccc3Cl)cc2)OC[C@H]1O [Example 7] | > 800 | -20 | 
O[C@@H]1[C@@H](O)[C@H](Oc2ccc(Cc3cccc(Cl)c3)cc2)OC[C@H]1O [Example 8] |  | -37 | LD50 [1]: ≥ 800 mg/kg
O[C@@H]1[C@@H](O)[C@H](Oc2ccc(Cc3ccc(Cl)cc3)cc2)OC[C@H]1O [Example 9, 4-(4-chlorobenzyl)phenyl β-D-xylopyranoside] | > 800 | -37 | 
O[C@@H]1[C@@H](O)[C@H](Oc2ccc(Cc3ccc(Br)cc3)cc2)OC[C@H]1O [Example 10] | ≥ 900 | -39 | 
Cc1ccc(Cc2ccc(O[C@@H]3OC[C@@H](O)[C@H](O)[C@H]3O)cc2)cc1 [Example 11] | > 800 | -19 | 
Cc1ccccc1Cc1ccc(O[C@@H]2OC[C@@H](O)[C@H](O)[C@H]2O)cc1 [Example 12] | > 800 | -28 | 
Cc1cccc(Cc2ccc(O[C@@H]3OC[C@@H](O)[C@H](O)[C@H]3O)cc2)c1 [Example 13] | ≥ 800 | -24 | 
COc1ccc(Cc2ccc(O[C@@H]3OC[C@@H](O)[C@H](O)[C@H]3O)cc2)cc1 [Example 15] | > 800 | -47 | 
COc1cccc(Cc2ccc(O[C@@H]3OC[C@@H](O)[C@H](O)[C@H]3O)cc2)c1 [Example 17] | > 1000 | -50 | 
O[C@@H]1[C@@H](O)[C@H](Oc2ccc(Cc3ccc(C(F)(F)F)cc3)cc2)OC[C@H]1O [Example 18] |  | -17 | LD50 [1]: > 900 mg/kg
Nc1ccc(Cc2ccc(O[C@@H]3OC[C@@H](O)[C@H](O)[C@H]3O)cc2)cc1 [Example 19] | > 800 | -29 | 
CN(C)c1ccc(Cc2ccc(O[C@@H]3OC[C@@H](O)[C@H](O)[C@H]3O)cc2)cc1 [Example 20] |  | -22 | 

SMILES | LD0 (maximum non-lethal dose) (mice) [mg/kg] | change in vivo at 100 mg/kg [2] [%] | also measured
Nc1cccc(Cc2ccc(O[C@@H]3OC[C@@H](O)[C@H](O)[C@H]3O)cc2)c1 [Example 23] | ≥ 900 | -28 | 
O[C@@H]1[C@@H](O)[C@H](Oc2ccc(Cc3ccc(Cl)cc3Cl)cc2)OC[C@H]1O [Example 26] |  | -8 | LD50 [1]: 640 mg/kg
Cc1cc(C)c(Cc2ccc(O[C@@H]3OC[C@@H](O)[C@H](O)[C@H]3O)cc2)c(C)c1 [Example 27] | ≥ 800 | -13 | 
Oc1ccc(Cc2ccc(O[C@@H]3OC[C@@H](O)[C@H](O)[C@H]3O)cc2)cc1 [Example 29] | ≥ 800 | -37 | 
Cc1ccc(Cc2cc(C)c(OC3OC[C@@H](O)[C@H](O)[C@H]3O)c(C)c2)cc1 (stereo partly drawn) [Example 30] |  | -12 | LD50 [1]: 630 mg/kg
O[C@@H]1[C@@H](O)[C@H](Oc2ccc(Cc3ccccc3)cc2)OC[C@H]1O [Example 33, 4-(benzyl)phenyl β-D-xylopyranoside] | > 800 | -38 | 
O=[N+]([O-])c1cc(Cc2ccccc2)ccc1O[C@@H]1OC[C@@H](O)[C@H](O)[C@H]1O [Example 34] |  |  | LD50 [1]: 250 mg/kg; change in vivo at 25 mg/kg ([2]; 25 mg/kg p.o. at T=0 and T=+7 hours): -15%
CC(=O)O[C@@H]1[C@@H](OC(C)=O)[C@H](Oc2ccc(Cc3c(C)cc(C)cc3C)cc2)OC[C@H]1OC(C)=O [Example 62] | > 900 | -18 | 
O=[N+]([O-])c1ccc(Cc2ccc(O[C@@H]3O[C@H](CO)[C@@H](O)[C@H](O)[C@H]3O)cc2)cc1 [Example 71] | ≥ 900 |  | change in vivo at 65 mg/kg [2]: -21%
O[C@@H]1[C@@H](O)[C@H](Oc2cccc(Cc3ccc(Cl)cc3)c2)OC[C@H]1O [Example 75] |  | -43 | 
O[C@@H]1[C@@H](O)[C@H](Oc2cccc(Cc3ccccc3)c2)OC[C@H]1O [Example 77] |  | -25 | 
Cc1cc(Cc2ccccc2)ccc1O[C@@H]1OC[C@@H](O)[C@H](O)[C@H]1O [Example 79] |  |  | LD50 [1]: 320 mg/kg; change in vivo at 30 mg/kg ([2]; 30 mg/kg p.o. at T=0 and T=+7 hours): -37%
Cc1cc(Cc2ccc([N+](=O)[O-])cc2)cc(C)c1OC1OC[C@@H](O)[C@H](O)[C@H]1O (stereo partly drawn) [Example 82] | > 800 |  | 
CSc1ccc(Cc2ccc(O[C@@H]3OC[C@@H](O)[C@H](O)[C@H]3O)cc2)cc1 [Example 85, 4-(4-methylthiobenzyl)phenyl β-D-xylopyranoside] | > 800 | -23 | 
CS(=O)(=O)c1ccc(Cc2ccc(O[C@@H]3OC[C@@H](O)[C@H](O)[C@H]3O)cc2)cc1 [Example 89, 4-(4-mesylbenzyl)phenyl β-D-xylopyranoside] |  |  | LD50 [1]: 450 mg/kg; change in vivo at 45 mg/kg ([2]; 45 mg/kg p.o. at T=0 and T=+7 hours): -30%
CS(=O)(=O)c1ccc(Cc2ccc(O[C@@H]3O[C@H](CO)[C@@H](O)[C@H](O)[C@H]3O)cc2)cc1 [Example 91, 4-(4-mesylbenzyl)phenyl β-D-glucopyranoside] | > 800 | -40 | 
CC(=O)N[C@H]1[C@H](Oc2ccc(Cc3ccc(S(C)(=O)=O)cc3)cc2)O[C@H](CO)[C@@H](O)[C@@H]1O [Example 93, 4-(4-mesylbenzyl)phenyl β-D-N-acetylglucosaminopyranoside] | > 800 | -36 | 
